{
  "source": "patent US9828352B2",
  "about": "“Phenyl carbamates and their use as inhibitors of the fatty acid amide hydrolase (FAAH) enzyme and modulators of the D3 dopamine receptor (D3DR)” (FONDAZIONE ISTITUTO ITALIANO DI TECNOLOGIA, priority 2013, dated 2017)",
  "key": {"[1]": {"target": "T1, rat FAAH (Rattus norvegicus, UniProt P97612)", "T1 construct": "from tissue; host or cells: male Sprague Dawley rat brain, total homogenate", "T1 sequence (P97612 1-579)": "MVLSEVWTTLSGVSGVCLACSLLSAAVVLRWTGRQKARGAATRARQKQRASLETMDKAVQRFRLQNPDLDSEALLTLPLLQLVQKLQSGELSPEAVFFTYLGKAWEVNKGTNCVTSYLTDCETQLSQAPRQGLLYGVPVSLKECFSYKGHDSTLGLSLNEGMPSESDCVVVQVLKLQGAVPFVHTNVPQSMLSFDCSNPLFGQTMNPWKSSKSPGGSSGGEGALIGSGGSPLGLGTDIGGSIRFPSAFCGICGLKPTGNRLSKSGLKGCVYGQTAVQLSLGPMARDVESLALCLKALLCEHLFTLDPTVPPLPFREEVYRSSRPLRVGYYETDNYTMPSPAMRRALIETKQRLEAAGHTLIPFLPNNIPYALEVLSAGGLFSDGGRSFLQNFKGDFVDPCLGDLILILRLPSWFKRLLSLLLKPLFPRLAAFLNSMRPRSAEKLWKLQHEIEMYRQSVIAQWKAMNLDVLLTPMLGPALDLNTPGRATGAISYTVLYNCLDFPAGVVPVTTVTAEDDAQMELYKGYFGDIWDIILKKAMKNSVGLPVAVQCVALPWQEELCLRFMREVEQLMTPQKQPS", "assay": "Rat Fatty Acid Amide Hydrolase (FAAH) assay, rat brain homogenate, [3H]-anandamide", "assay_type": "biochemical", "conditions": "3 separate experiments, each in duplicate", "experimental": "Rat Fatty Acid Amide Hydrolase (FAAH) Assay\nMale Sprague Dawley rat brains were homogenized in a potter in 20 mM Tris-HCl pH7.4, 0.32M sucrose, protein concentration was measured and samples aliquot stored at −80° C. until use.\nFAAH activity was measured using 50 μg of total rat brain homogenate pre-incubated for 10 minutes at 37° C. in 445.5 μL of assay buffer (50 mM Tris-HCl pH7.4, 0.05% Fatty acid-free BSA) with 4.5 μL of inhibitor at appropriate concentration in DMSO, or DMSO alone to measure FAAH total activity. The blank (no activity sample) was prepared with 445.5 μL of assay buffer and 4.5 μL of DMSO without the 50 μg of total rat brain homogenate.\nAfter 10 minutes of pre-incubation, the reaction was started by the addition of 50 μL of substrate for 30 min at 37° C. The substrate is prepared in assay buffer in order to achieve the final concentration of 1 μM Arachidonoyl-ethanolamide (N.90050, Cayman Chemical) and 0.6 nM Anandamide [ethanolamine-1-^3H] (American Radiolabeled Chemicals Inc., ART.0626, 1 mCi/ml, specific activity 60 Ci/mmol).\nThe reaction was stopped by with the addition of cold 1:1 CHCl3/Methanol. After 10 minutes of centrifugation (845×g at 4° C.) 600 μL of the aqueous phase was transferred into scintillation vials previously filled with 3 mL of scintillation fluid (ULTIMA GOLD, Cat. 6013329, Perkin Elmer Inc.).\nRadioactivity was measured by liquid scintillation counting (Microbeta2 Lumijet, Perkin Elmer Inc.).\n(§1) EC50 or IC50 values (concentrations causing half-maximal response or inhibition of control agonist response) were determined by non-linear regression analysis of the Log [concentration]/response curves generated with mean replicate values using a four parameter Hill equation curve fitting with GraphPad Prism 5 (GraphPad Software Inc., CA—USA)."}, "[2]": {"target": "T2, human FAAH-1 (Homo sapiens, UniProt O00519)", "T2 construct": "expressed in transfected cells; host or cells: Hek293 cells stably transfected with human FAAH-1; membrane preparation", "T2 sequence (O00519 1-579)": "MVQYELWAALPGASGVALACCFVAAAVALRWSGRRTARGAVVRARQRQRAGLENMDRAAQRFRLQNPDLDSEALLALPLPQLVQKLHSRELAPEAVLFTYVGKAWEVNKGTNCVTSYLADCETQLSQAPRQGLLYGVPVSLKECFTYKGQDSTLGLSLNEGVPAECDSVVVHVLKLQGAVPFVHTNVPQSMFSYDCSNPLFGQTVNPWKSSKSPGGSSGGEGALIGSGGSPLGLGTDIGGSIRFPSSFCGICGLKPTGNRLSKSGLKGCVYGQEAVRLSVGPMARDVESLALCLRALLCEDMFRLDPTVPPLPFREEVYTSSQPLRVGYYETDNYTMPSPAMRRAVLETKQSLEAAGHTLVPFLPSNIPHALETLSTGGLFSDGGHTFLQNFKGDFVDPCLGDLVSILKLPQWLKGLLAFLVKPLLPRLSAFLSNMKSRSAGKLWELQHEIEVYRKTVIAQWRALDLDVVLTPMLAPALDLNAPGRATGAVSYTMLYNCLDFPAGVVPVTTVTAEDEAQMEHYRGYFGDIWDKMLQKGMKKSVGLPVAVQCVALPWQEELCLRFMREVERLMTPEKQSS", "assay": "Human recombinant Fatty Acid Amide Hydrolase-1 (FAAH-1) fluorescent assay, Hek293-hFAAH-1 membranes", "assay_type": "biochemical", "conditions": "3 separate experiments, each in triplicate", "experimental": "Human Recombinant Fatty Acid Amide Hydrolase-1 (FAAH-1) Fluorescent Assay\nHek293 cells stably transfected with human FAAH-1 were maintained in DMEM containing 10% FBS, 1% pen/strep and 500 μg/mL G418 to maintain selective pressure. Cells were scraped off with cold PBS1× pH7.4 from plates and collected by centrifugation (500 g, 10 minutes, 4° C.); cells pellets were re-suspended in homogenizing buffer (20 mM Tris-HCl pH7.4, 0.32M sucrose), disrupted by sonication (10 pulses, 5 times) and centrifuged at 800×g for 15 minutes at 4° C.; the resultant supernatants collected were then centrifuged at 105,000×g for 1 hr at 4° C. and membranes pellets were re-suspended in PBS1× pH7.4.\nProtein concentration was measured and samples aliquot stored at −80° C. until use.\nThe blank (no activity) was prepared using 180 μL of assay buffer without Hek293-hFAAH-1 membrane preparation and 10 μL of DMSO.\nAfter 50 minutes of pre-incubation of compounds with the enzyme at 37° C., the reaction was started by the addition of 10 μL of substrate (AMC Arachidonyl Amide, N.10005098, Cayman Chemical) for 30 min at 37° C. The substrate is prepared in Ethanol in order to achieve the final concentration of 2 μM.\nFluorescence was detected with Tecan Infinite M200 nanoquant (Tecan Group Ltd.) at an excitation wavelength 350 nm and an emission wavelength 460 nm.\nas §1"}, "[3]": {"target": "T3, human-D3R (Homo sapiens, UniProt P35462)", "T3 construct": "expressed in transfected cells; host or cells: CHO cell line stably transfected with human D3R", "T3 sequence (P35462 whole entry)": "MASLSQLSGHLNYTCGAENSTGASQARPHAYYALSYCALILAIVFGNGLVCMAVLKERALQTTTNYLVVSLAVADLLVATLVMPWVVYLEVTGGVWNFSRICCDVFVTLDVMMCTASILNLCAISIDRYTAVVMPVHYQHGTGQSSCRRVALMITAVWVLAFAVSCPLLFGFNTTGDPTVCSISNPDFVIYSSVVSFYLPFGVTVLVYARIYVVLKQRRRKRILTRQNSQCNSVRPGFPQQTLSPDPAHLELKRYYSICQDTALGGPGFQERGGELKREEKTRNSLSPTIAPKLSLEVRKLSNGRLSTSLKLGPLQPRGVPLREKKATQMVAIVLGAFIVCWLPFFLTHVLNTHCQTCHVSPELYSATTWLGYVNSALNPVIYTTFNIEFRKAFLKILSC", "assay": "D3 Dopamine Receptor (D3dR) cellular assay, cAMP HTRF functional assay in human-D3R expressing CHO cells", "assay_type": "cell-based", "experimental": "D3 Dopamine Receptor (D3dR) Cellular Assay\nActivity on D3R was tested with a cAMP functional assay on a stably transfected human-D3R expressing CHO cell line. On the day of the assay performance the cells were washed twice with PBS (w/o calcium and magnesium) and dislodged with a cell scraper, transferred to PBS, centrifuged and re-suspended in HBSS (w/o calcium and magnesium), supplemented with 1 g/L glucose and […] IBMX. The cell suspension was seeded on a 384 well plate (Greiner) and the assay was performed by adding compounds either test compounds alone (for agonist activity), or with test compound after a pre-incubation with 10 nM Dopamine as a stimulant (for antagonistic activity). After incubation (30 min at RT) the cell stimulation was stopped by adding the detecting reagents (cAMP-XL665 and anti-cAMP cryptate) diluted in lysis buffer. The signal was quantified by Homogenous Time-Resolved Fluorescence (HTRF) on a Perkin Elmer Envision plate reader after one hour of incubation at RT.\nas §1"}},
  "data": [
    {"compound": "NC(=O)c1cccc(-c2ccc(OC(=O)NCCCCN3CCN(c4cccc(Cl)c4Cl)CC3)cc2)c1", "note": "[Example 7, [4-(3-carbamoylphenyl)phenyl] N-[4-[4-(2,3-dichlorophenyl)piperazin-1-yl]butyl]carbamate]", "values": [
      {"measurement": "IC50", "setting": "[1]", "result": 720, "unit": "pM"}
    ]},
    {"compound": "NC(=O)c1cccc(-c2cccc(OC(=O)NCCCN3CCN(c4cccc(Cl)c4Cl)CC3)c2)c1", "note": "[Example 3, [3-(3-carbamoylphenyl)phenyl] N-[3-[4-(2,3-dichlorophenyl)piperazin-1-yl]propyl]carbamate]", "values": [
      {"measurement": "IC50", "setting": "[1]", "result": 110, "unit": "pM"}
    ]},
    {"compound": "NC(=O)c1cccc(-c2ccc(OC(=O)NCCCN3CCN(c4cccc(Cl)c4Cl)CC3)cc2)c1", "note": "[Example 6, [4-(3-carbamoylphenyl)phenyl] N-[3-[4-(2,3-dichlorophenyl)piperazin-1-yl]propyl]carbamate]", "values": [
      {"measurement": "IC50", "setting": "[1]", "result": 1500, "unit": "pM"}
    ]},
    {"compound": "NC(=O)c1cccc(-c2cccc(OC(=O)NCCCCN3CCN(c4cccc(Cl)c4Cl)CC3)c2)c1", "note": "[Example 2, [3-(3-carbamoylphenyl)phenyl] N-[4-[4-(2,3-dichlorophenyl)piperazin-1-yl]butyl] carbamate]", "values": [
      {"measurement": "IC50", "setting": "[1]", "result": 300, "unit": "pM"}
    ]},
    {"compound": "O=C(NCCCN1CCN(c2ccccc2)CC1)Oc1cccc(-c2ccccc2)c1", "note": "[Example 5, (3-phenylphenyl) N-[3-(4-phenylpiperazin-1-yl)propyl]carbamate]", "values": [
      {"measurement": "IC50", "setting": "[1]", "result": 3000, "unit": "pM"},
      {"measurement": "IC50", "setting": "[2]", "result": 3400, "unit": "pM"},
      {"measurement": "Emax", "setting": "[3]; CHO, 0.5 h, % of 300 nM Dopamine response, read-out: Dopamine D3 % of Agonist Activity", "result": 89.7, "unit": "%"},
      {"measurement": "EC50", "setting": "[3]; cAMP assay, CHO human-D3R, one experiment in duplicate", "result": 13000, "unit": "pM"}
    ]},
    {"compound": "NC(=O)c1cccc(-c2cccc(OC(=O)NCCCN3CCN(c4ccccc4)CC3)c2)c1", "note": "[Example 4, [3-(3-carbamoylphenyl)phenyl] N-[3-(4-phenylpiperazin-1-yl)propyl]carbamate]", "values": [
      {"measurement": "IC50", "setting": "[1]", "result": 320, "unit": "pM"}
    ]},
    {"compound": "COc1ccccc1N1CCN(CCCCNC(=O)Oc2cccc(-c3cccc(C(N)=O)c3)c2)CC1", "note": "[Example 1, [3-(3-carbamoylphenyl)phenyl] N-[4-[4-(2-methoxyphenyl)piperazin-1-yl]butyl] carbamate]", "values": [
      {"measurement": "IC50", "setting": "[1]", "result": 940, "unit": "pM"}
    ]}
  ]
}
